Measurements taken from ChEMBL document CHEMBL3885861, “Open TG-GATES”.

Species on record: Rattus norvegicus
Assay: Open TG-GATES - Regimen: Daily Repeat
Format: toxicity, organism-based, Sprague-Dawley
Design: regimen Daily Repeat, gender Male, age 6 weeks
Settings: in vivo, po, route gavage; for Eos / Fbg / Hb / Ht / Lym / MCH / MCHC / MCV / Mono / PT / Plat / RBC / Ret / WBC / APTT / Bas: tissue Blood; for KIDNEY_L / KIDNEY_R / KIDNEY_TOTAL: tissue Kidney; for ALP / ALT / AST / BUN / CRE / DBIL / GLC / IP / K / LDH / Na / PL / RALB / TBIL / TC / TG / TP / gamma-GTP / Ca: tissue Plasma
[1] = 60 mg/kg, 72 h, dose level Middle, time 3 day
[2] = 60 mg/kg, […], dose level Middle, time 7 day
[3] = 60 mg/kg, […], dose level Middle, time 14 day
[4] = 60 mg/kg, […], dose level Middle, time 28 day
[5] = 200 mg/kg, 72 h, dose level High, time 3 day
[6] = 200 mg/kg, […], dose level High, time 7 day
[7] = 200 mg/kg, […], dose level High, time 14 day
[8] = 200 mg/kg, […], dose level High, time 28 day

## CC(C)Cc1ccc(C(C)C(=O)O)cc1 (stereo not given) [IBUPROFEN]
[1]
  Eos: 0.8%
  Fbg: 340.8 mg/dL
  Hb: 13.2 g/dL
  Ht: 39%
  Lym: 73.8%
  MCH: 21 pg
  MCHC: 33.9%
  MCV: 61.9 fL
  Mono: 2.6%
  PT: 16 s
  Plat: 115.2 x10_4/uL
  RBC: 629.8 x10_4/ul
  Ret: 6.7%
  WBC: 115.1 x10_2/uL
  KIDNEY_L: 0.9 g
  KIDNEY_R: 1 g
  KIDNEY_TOTAL: 1.9 g
  ALP: 1603.6 IU/L
  ALT: 45 IU/L
  AST: 80.4 IU/L
  BUN: 17.8 mg/dL
  CRE: 0.2 mg/dL
  DBIL: 0 mg/dL
  GLC: 184.6 mg/dL
  IP: 7.2 mg/dL
  K: 4.4 meq/L
  LDH: 237 IU/L
  Na: 141.4 meq/L
  PL: 138.4 mg/dL
  RALB: 2.9 g/dL
  TBIL: 0.002 mg/dL
  TC: 73.4 mg/dL
  TG: 130.8 mg/dL
  TP: 5.4 g/dL
  gamma-GTP: 1.4 IU/L
[2]
  TERMINAL_BW: 253.3 g
  APTT: 20.6 s
  Bas: 0%
  Eos: 1%
  Fbg: 313.2 mg/dL
  Hb: 12.9 g/dL
  Ht: 37.4%
  Lym: 68.6%
  MCH: 21.3 pg
  MCHC: 34.4%
  MCV: 62 fL
  Mono: 3%
  PT: 15.8 s
  Plat: 132.1 x10_4/uL
  RBC: 605 x10_4/ul
  Ret: 8.2%
  WBC: 133.5 x10_2/uL
  KIDNEY_L: 1.1 g
  KIDNEY_R: 1.1 g
  KIDNEY_TOTAL: 2.1 g
  ALP: 1376 IU/L
  ALT: 44.2 IU/L
  AST: 78 IU/L
  BUN: 18.6 mg/dL
  CRE: 0.2 mg/dL
  DBIL: 0 mg/dL
  GLC: 188.4 mg/dL
  IP: 7.3 mg/dL
  K: 4 meq/L
  LDH: 187.6 IU/L
  Na: 139.2 meq/L
  PL: 154.4 mg/dL
  RALB: 3 g/dL
  TBIL: 0.004 mg/dL
  TC: 75.6 mg/dL
  TG: 136.4 mg/dL
  TP: 5.4 g/dL
  gamma-GTP: 2.4 IU/L
[3]
  TERMINAL_BW: 297.5 g
  APTT: 23.6 s
  Bas: 0%
  Eos: 1%
  Fbg: 326.2 mg/dL
  Ht: 41%
  Lym: 75.8%
  MCHC: 33.9%
  MCV: 61.4 fL
  Mono: 2.8%
  PT: 16.1 s
  RBC: 670.4 x10_4/ul
  Ret: 5.7%
  WBC: 126.7 x10_2/uL
  KIDNEY_L: 1.2 g
  KIDNEY_R: 1.2 g
  KIDNEY_TOTAL: 2.4 g
  ALP: 1198.6 IU/L
  ALT: 41.2 IU/L
  AST: 69.2 IU/L
  CRE: 0.2 mg/dL
  DBIL: 0 mg/dL
  GLC: 189.4 mg/dL
  IP: 8.1 mg/dL
  K: 4.1 meq/L
  LDH: 147.6 IU/L
  Na: 141 meq/L
  PL: 154 mg/dL
  RALB: 3 g/dL
  TBIL: 0.004 mg/dL
  TC: 76.6 mg/dL
  TG: 139 mg/dL
  TP: 5.6 g/dL
  gamma-GTP: 2.2 IU/L
[4]
  TERMINAL_BW: 379.8 g
  APTT: 24.2 s
  Bas: 0%
  Eos: 1.8%
  Fbg: 333 mg/dL
  Hb: 14.8 g/dL
  Ht: 43.5%
  Lym: 75.2%
  MCH: 19 pg
  MCHC: 34%
  MCV: 56 fL
  Mono: 1.8%
  Plat: 102 x10_4/uL
  RBC: 777.2 x10_4/ul
  Ret: 2.8%
  WBC: 93.9 x10_2/uL
  KIDNEY_L: 1.3 g
  KIDNEY_R: 1.4 g
  KIDNEY_TOTAL: 2.7 g
  ALP: 1187.4 IU/L
  ALT: 40.8 IU/L
  AST: 67.8 IU/L
  BUN: 20 mg/dL
  CRE: 0.2 mg/dL
  Ca: 10.4 mg/dL
  DBIL: 0 mg/dL
  GLC: 186.2 mg/dL
  IP: 6.7 mg/dL
  K: 3.9 meq/L
  LDH: 150.6 IU/L
  Na: 142.4 meq/L
  PL: 147 mg/dL
  RALB: 3.2 g/dL
  TBIL: 0.002 mg/dL
  TC: 71.8 mg/dL
  TG: 139 mg/dL
  TP: 6 g/dL
  gamma-GTP: 2.6 IU/L
[5]
  TERMINAL_BW: 206.3 g
  APTT: 19.6 s
  Bas: 0%
  Eos: 1%
  Fbg: 465.4 mg/dL
  Hb: 9.9 g/dL
  Ht: 29.9%
  Lym: 66.2%
  MCH: 21.1 pg
  MCHC: 33.2%
  MCV: 63.7 fL
  Mono: 4.8%
  PT: 15.1 s
  Plat: 111.5 x10_4/uL
  RBC: 472.2 x10_4/ul
  Ret: 11%
  WBC: 175.1 x10_2/uL
  KIDNEY_L: 0.9 g
  KIDNEY_R: 1 g
  KIDNEY_TOTAL: 1.9 g
  ALP: 841.6 IU/L
  ALT: 34.4 IU/L
  AST: 59.4 IU/L
  BUN: 16.2 mg/dL
  CRE: 0.1 mg/dL
  DBIL: 0 mg/dL
  GLC: 171 mg/dL
  IP: 7.9 mg/dL
  K: 4.5 meq/L
  LDH: 122.6 IU/L
  Na: 140.8 meq/L
  PL: 147.2 mg/dL
  RALB: 2.4 g/dL
  TBIL: 0.004 mg/dL
  TC: 86 mg/dL
  TG: 116.2 mg/dL
  TP: 4.8 g/dL
  gamma-GTP: 1.6 IU/L
[6]
  TERMINAL_BW: 228.5 g
  APTT: 20.3 s
  Bas: 0%
  Eos: 1.4%
  Fbg: 360.2 mg/dL
  Hb: 9.5 g/dL
  Ht: 29.8%
  Lym: 65.6%
  MCH: 21.1 pg
  MCV: 66.4 fL
  Mono: 3.6%
  PT: 16.4 s
  Plat: 198 x10_4/uL
  RBC: 450 x10_4/ul
  Ret: 20.9%
  WBC: 213.7 x10_2/uL
  KIDNEY_L: 1 g
  KIDNEY_R: 1 g
  KIDNEY_TOTAL: 2.1 g
  ALP: 793 IU/L
  AST: 63 IU/L
  BUN: 18.6 mg/dL
  CRE: 0.2 mg/dL
  DBIL: 0 mg/dL
  GLC: 179.6 mg/dL
  IP: 7.8 mg/dL
  K: 4.3 meq/L
  LDH: 145 IU/L
  Na: 140.4 meq/L
  PL: 161.6 mg/dL
  RALB: 2.7 g/dL
  TBIL: 0.002 mg/dL
  TC: 84 mg/dL
  TG: 148.6 mg/dL
  TP: 5.1 g/dL
  gamma-GTP: 2 IU/L
[7]
  TERMINAL_BW: 217 g
  APTT: 18.9 s
  Bas: 0%
  Eos: 1.2%
  Fbg: 455.2 mg/dL
  Hb: 6.4 g/dL
  Ht: 23.2%
  Lym: 56.6%
  MCH: 17.8 pg
  MCHC: 27.3%
  MCV: 65.3 fL
  Mono: 5%
  PT: 16.5 s
  Plat: 274.3 x10_4/uL
  RBC: 354.6 x10_4/ul
  Ret: 36.9%
  WBC: 225.9 x10_2/uL
  KIDNEY_L: 1 g
  KIDNEY_R: 1.1 g
  KIDNEY_TOTAL: 2.1 g
  ALP: 502.2 IU/L
  ALT: 25.6 IU/L
  AST: 55.2 IU/L
  BUN: 15.4 mg/dL
  CRE: 0.2 mg/dL
  Ca: 10.2 mg/dL
  DBIL: 0 mg/dL
  GLC: 159.6 mg/dL
  IP: 8.4 mg/dL
  K: 4.4 meq/L
  LDH: 145.8 IU/L
  Na: 140.4 meq/L
  PL: 167.4 mg/dL
  RALB: 2.2 g/dL
  TBIL: 0.004 mg/dL
  TC: 81.2 mg/dL
  TG: 239.2 mg/dL
  TP: 4.8 g/dL
  gamma-GTP: 2.6 IU/L
[8]
  TERMINAL_BW: 319 g
  APTT: 19.1 s
  Bas: 0%
  Eos: 2.2%
  Fbg: 434.8 mg/dL
  Hb: 7.6 g/dL
  Lym: 48.8%
  MCH: 17.5 pg
  MCHC: 28%
  MCV: 62.7 fL
  Mono: 3%
  PT: 16.6 s
  Plat: 195.7 x10_4/uL
  RBC: 433.5 x10_4/ul
  WBC: 190.5 x10_2/uL
  KIDNEY_L: 1.4 g
  KIDNEY_R: 1.4 g
  KIDNEY_TOTAL: 2.8 g
  ALP: 493.2 IU/L
  ALT: 30 IU/L
  AST: 64 IU/L
  BUN: 18 mg/dL
  CRE: 0.2 mg/dL
  Ca: 10.4 mg/dL
  DBIL: 0 mg/dL
  GLC: 164.2 mg/dL
  IP: 7 mg/dL
  K: 4.2 meq/L
  LDH: 158.8 IU/L
  Na: 141.2 meq/L
  PL: 191.5 mg/dL
  RALB: 2.4 g/dL
  TBIL: 0 mg/dL
  TC: 95 mg/dL
  TG: 283.8 mg/dL
  TP: 5.1 g/dL
  gamma-GTP: 4.2 IU/L
